Test results taken from PubChem BioAssay AID2060903 (Molecular Pharmacology Branch, DTP, NCI, 2025).

Test system: 377384-186-R-J1-PDC complex spheroid viability
Assay: Anticancer human tumor 377384-186-R-J1-PDC patient-derived pancreatic carcinoma cell line growth inhibition [RAS]
Conditions: for IC50: curve of first compound; for viability, T/C: stronger effect = lower value
In short: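 Tumour cells grown as complex spheroids with HUVEC endothelial cells and mesenchymal stem cells, treated with RAS pathway inhibitor combinations. Each agent spans half-log steps from near clinical Cmax, or 10 microM where Cmax is unknown.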
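Note: spheroids exposed to compounds for seven days before readout.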

With CCc1c2c(nc3ccc(O)cc13)-c1cc3c(c(=O)n1C2)COC(=O)[C@]3(O)CC + CCn1c(-c2cc(N3CCN(C)CC3)cnc2C(C)OC)c2c3cc(ccc31)-c1csc(n1)CC(NC(=O)C1CC1C)C(=O)N1CCCC(N1)C(=O)OCC(C)(C)C2 the IC50 (second compound 0.000949 µM) was under 0.949 nM, the IC50 (second compound 0.003 µM) was under 0.949 nM and the IC50 (second compound 0.00949 µM) was under 0.949 nM. It also gave an IC50 (second compound 0.03 µM) of under 0.949 nM, an IC50 (second compound 0.0949 µM) of under 0.949 nM and an IC50 (second compound 0.3 µM) of under 0.949 nM. It also gave a viability, T/C (second compound 0.000949 µM, first compound 0.000949 µM) of 33.1%, a viability, T/C (second compound 0.000949 µM, first compound 0.003 µM) of 21.3% and a viability, T/C (second compound 0.000949 µM, first compound 0.00949 µM) of 10.2%. For the same compound, the viability, T/C (second compound 0.000949 µM, first compound 0.03 µM) was 5.07%, the viability, T/C (second compound 0.000949 µM, first compound 0.0949 µM) was 2.53% and the viability, T/C (second compound 0.000949 µM, first compound 0.3 µM) was 1.79%. For the same compound, the viability, T/C (second compound 0.003 µM, first compound 0.000949 µM) was 20.8%, the viability, T/C (second compound 0.003 µM, first compound 0.003 µM) was 7.71% and the viability, T/C (second compound 0.003 µM, first compound 0.00949 µM) was 4.82%. For the same compound, the viability, T/C (second compound 0.003 µM, first compound 0.03 µM) was 3.05%, the viability, T/C (second compound 0.003 µM, first compound 0.0949 µM) was 2.03% and the viability, T/C (second compound 0.003 µM, first compound 0.3 µM) was 1.92%. The viability, T/C (second compound 0.00949 µM, first compound 0.000949 µM) was 4.34%, the viability, T/C (second compound 0.00949 µM, first compound 0.003 µM) was 3.24% and the viability, T/C (second compound 0.00949 µM, first compound 0.00949 µM) was 2.6%. For the same compound, the viability, T/C (second compound 0.00949 µM, first compound 0.03 µM) was 2.11%, the viability, T/C (second compound 0.00949 µM, first compound 0.0949 µM) was 2.15% and the viability, T/C (second compound 0.00949 µM, first compound 0.3 µM) was 1.25%. It also gave a viability, T/C (second compound 0.03 µM, first compound 0.000949 µM) of 2.43%, a viability, T/C (second compound 0.03 µM, first compound 0.003 µM) of 2.09% and a viability, T/C (second compound 0.03 µM, first compound 0.00949 µM) of 2.04%. The viability, T/C (second compound 0.03 µM, first compound 0.03 µM) was 2.06%, the viability, T/C (second compound 0.03 µM, first compound 0.0949 µM) was 1.98% and the viability, T/C (second compound 0.03 µM, first compound 0.3 µM) was 1.26%. It also gave a viability, T/C (second compound 0.0949 µM, first compound 0.000949 µM) of 1.98%, a viability, T/C (second compound 0.0949 µM, first compound 0.003 µM) of 1.94% and a viability, T/C (second compound 0.0949 µM, first compound 0.00949 µM) of 1.8%. It also gave a viability, T/C (second compound 0.0949 µM, first compound 0.03 µM) of 1.65%, a viability, T/C (second compound 0.0949 µM, first compound 0.0949 µM) of 1.4% and a viability, T/C (second compound 0.0949 µM, first compound 0.3 µM) of 0.95%. The viability, T/C (second compound 0.3 µM, first compound 0.000949 µM) was 1.39%, the viability, T/C (second compound 0.3 µM, first compound 0.003 µM) was 1.76% and the viability, T/C (second compound 0.3 µM, first compound 0.00949 µM) was 1.84%. The viability, T/C (second compound 0.3 µM, first compound 0.03 µM) was 1.68%, the viability, T/C (second compound 0.3 µM, first compound 0.0949 µM) was 1.29% and the viability, T/C (second compound 0.3 µM, first compound 0.3 µM) was 0.71%.

Nc1ccn(C2OC(CO)C(O)C2(F)F)c(=O)n1 (centres undefined) + CCn1c(-c2cc(N3CCN(C)CC3)cnc2C(C)OC)c2c3cc(ccc31)-c1csc(n1)CC(NC(=O)C1CC1C)C(=O)N1CCCC(N1)C(=O)OCC(C)(C)C2 showed an IC50 (second compound 0.000949 µM) of under 3.16 nM, an IC50 (second compound 0.003 µM) of under 3.16 nM and an IC50 (second compound 0.00949 µM) of under 3.16 nM. The IC50 (second compound 0.03 µM) was under 3.16 nM, the IC50 (second compound 0.0949 µM) was under 3.16 nM and the IC50 (second compound 0.3 µM) was under 3.16 nM. It also gave a viability, T/C (second compound 0.000949 µM, first compound 0.00316 µM) of 41.1%, a viability, T/C (second compound 0.000949 µM, first compound 0.01 µM) of 18.4% and a viability, T/C (second compound 0.000949 µM, first compound 0.0316 µM) of 4.12%. The viability, T/C (second compound 0.000949 µM, first compound 0.1 µM) was 3.96%, the viability, T/C (second compound 0.000949 µM, first compound 0.316 µM) was 3.39% and the viability, T/C (second compound 0.000949 µM, first compound 1 µM) was 3.44%. For the same compound, the viability, T/C (second compound 0.003 µM, first compound 0.00316 µM) was 19%, the viability, T/C (second compound 0.003 µM, first compound 0.01 µM) was 8.01% and the viability, T/C (second compound 0.003 µM, first compound 0.0316 µM) was 5.2%. For the same compound, the viability, T/C (second compound 0.003 µM, first compound 0.1 µM) was 2.62%, the viability, T/C (second compound 0.003 µM, first compound 0.316 µM) was 3.06% and the viability, T/C (second compound 0.003 µM, first compound 1 µM) was 2.55%. It also gave a viability, T/C (second compound 0.00949 µM, first compound 0.00316 µM) of 4.2%, a viability, T/C (second compound 0.00949 µM, first compound 0.01 µM) of 3.81% and a viability, T/C (second compound 0.00949 µM, first compound 0.0316 µM) of 3.02%. It also gave a viability, T/C (second compound 0.00949 µM, first compound 0.1 µM) of 2.45%, a viability, T/C (second compound 0.00949 µM, first compound 0.316 µM) of 2.8% and a viability, T/C (second compound 0.00949 µM, first compound 1 µM) of 2.63%. The viability, T/C (second compound 0.03 µM, first compound 0.00316 µM) was 2.29%, the viability, T/C (second compound 0.03 µM, first compound 0.01 µM) was 3.33% and the viability, T/C (second compound 0.03 µM, first compound 0.0316 µM) was 2.15%. The viability, T/C (second compound 0.03 µM, first compound 0.1 µM) was 2.11%, the viability, T/C (second compound 0.03 µM, first compound 0.316 µM) was 3.23% and the viability, T/C (second compound 0.03 µM, first compound 1 µM) was 2.21%. The viability, T/C (second compound 0.0949 µM, first compound 0.00316 µM) was 2.1%, the viability, T/C (second compound 0.0949 µM, first compound 0.01 µM) was 2.03% and the viability, T/C (second compound 0.0949 µM, first compound 0.0316 µM) was 1.97%. For the same compound, the viability, T/C (second compound 0.0949 µM, first compound 0.1 µM) was 1.8%, the viability, T/C (second compound 0.0949 µM, first compound 0.316 µM) was 1.92% and the viability, T/C (second compound 0.0949 µM, first compound 1 µM) was 1.8%. The viability, T/C (second compound 0.3 µM, first compound 0.00316 µM) was 1.98%, the viability, T/C (second compound 0.3 µM, first compound 0.01 µM) was 2.16% and the viability, T/C (second compound 0.3 µM, first compound 0.0316 µM) was 1.73%. The viability, T/C (second compound 0.3 µM, first compound 0.1 µM) was 1.47%, the viability, T/C (second compound 0.3 µM, first compound 0.316 µM) was 1.95% and the viability, T/C (second compound 0.3 µM, first compound 1 µM) was 2.17%.
